How the values were obtained:
[1] = tested on: normotensive rats; assay: Heart rate and blood pressure in living (anaesthetized) rat, intravenous injection; assay type: in vivo, Wistar rats
Source text: Male Wistar rats, weighing 200 ∼ 300g were abdominal anaesthetized with pentobarbital sodium. Tracheal was cannulated to maintain normal respiration. Polyethylene tube was inserted into the left femoral vein to facilitate drug administration. A 3-way stopcock was used, with one end connected to a syringe for drug injection, while the other end was connected to the syringe filled with physiological saline. The latter was used to prevent residual drugs in the polyethylene tube after injection, which would affect experimental accuracy.
The right femoral artery was also inserted with polyethylene, and a 3-way stopcock was used tool, where one end was connected to heparin solution to prevent embolism. The other end was connected to a Disposable Diaphragm Dome, TA1019, and linked to a transducer. Through an amplifier, a recorder recorded the overall and average arterial pressure; heart rate to evaluate the effect of drug on blood pressure and heart rate.

[2] = tested on: A7r5 cells; assay: Fluorescence determination of intracellular calcium ion (fluo 3-AM, laser cytometer); assay type: cell-based; conditions: 10^-8, 10^-7, and 10^-6M for 5 minutes
Protocol: The intensity of fluo 3-AM was measured by line scanning at 30second interval with an argon laser at […].

[3] = target: T1, atrial β 1-receptor (Rattus norvegicus, UniProt P18090); assay: [3H]CGP-12177 receptor binding on atrial membranes; parameters: species or system Wistar rat
T1 construct: The heart and lung of rat were removed and placed in cold Tris buffer; from tissue; host or cells: rat atrial membranes
Protocol: (§1) The heart and lung of rat were removed and placed in cold Tris buffer. Then the atria and lung were separated and weighed, before placing in cold Tris buffer with volume 20X their weights. […] The centrifugal fluid was again centrifuged at 10,000 gm for 12 minutes. The second centrifugal fluid was centrifuged for the third time at 29,000 gm for 15 minutes. The pellet finally obtained was re-suspended in Tris buffer as little as possible. […] Finally, the protein concentration was diluted with Tris buffer to maintain 200∼250 µ g protein per 100 µ l.
(§2) After reaction, 1ml of cold Tris buffer was added to terminate the binding reaction.

[4] = tested on: Wistar rat's isolated; reserpine pretreated right atrium beating rate and left atrium isometric contractions; assay: Direct effect (intrinsic sympathomimetic activity) on reserpine-pretreated isolated atria
Protocol: Pharmacol 311, pp. 205-218 and pp 237-248 (1980). Wistar rats of weight between 200 ∼ 300 gm were used. 18 ∼ 24 hours before the experiment, 5mg/kg of reserpine was injected via abdominal cavity to remove all endogenous catecholamines. Prior experiment, Wistar rats were sacrificed, the heart was immediately removed and placed in Kreb's solution aerated with air mixture and maintained at room temperature. The right and left atria were carefully separated.

[5] = tested on: guinea pig's isolated; reserpine pretreated tracheal; assay: Direct effect (tracheal relaxation, intrinsic sympathomimetic activity) on reserpine-pretreated isolated trachea, with and without ICI 118,551
Protocol: Pharmacol 311, pp. 205-218 and pp.237-248 (1980). guinea pigs of weight between 350 ∼ 500 gm were used. 18 ∼ 24 hours before the experiment, 5mg/kg of reserpine was injected via abdominal cavity to remove all endogenous catecholamines. Prior experiment, guinea pigs were sacrificed, the tracheal was immediately removed and placed in Kreb's solution aerated with air mixture and maintained at room temperature of 22 ∼ 25°C. […] […] Then the tissue was repeatedly washed with Kreb's solution. After the tissue had been re-equilibrated for 60 minutes, ICI 118, 551 were administed. After treatment for 30 minutes, compound 1 of similar concentration was administered, and the intrinsic sympathomimetic activity of tracheal was observed.

[6] = target: T2, β-adrenoreceptor (β1) (Rattus norvegicus, UniProt P18090); assay: β-adrenoceptor blocking action on isolated spontaneously beating right atrium (L-isoproterenol-induced heart rate increase, Schild plot); parameters: species or system Wistar rat
T2 construct: The right and left atria were then separated; from tissue; host or cells: isolated rat right and left atria
Protocol: The right and left atria were then separated. The spontaneously-beating right atria was clipped on both end by heart shaped clips, where one end was fixed at the bottom of 10ml of tissue bath made of physiological saline solution, and temperature maintained at 37°C. The other end of the atria was connected to a force transducer, and isometric contractions and beating rate of the right atria were recorded by COULBOURN AT-High-Speed VideoFigure. […] Cumulative administration interval was when the previous concentration reached its greatest effect, the next concentration would be immediately given.

[7] = target: T3, lung β 2-receptor (Rattus norvegicus, UniProt P10608); assay: [3H]CGP-12177 receptor binding on lung membranes; parameters: species or system Wistar rat
T3 construct: The heart and lung of rat were removed and placed in cold Tris buffer; from tissue; host or cells: rat lung membranes
Protocol: as §1, §2

[8] = target: T4, β2-adrenoceptor (Cavia porcellus, UniProt Q8K4Z4); assay: β-adrenoceptor blocking action on isolated trachea contracted with carbachol (L-isoproterenol relaxation); parameters: species or system guinea pig
T4 construct: a portion of tracheal approximately 4 cm long was removed; from tissue; host or cells: isolated guinea pig trachea (reserpine-pretreated animals)
Protocol: Guinea pigs of weight between 300 ∼500 gm were used. […] After the guinea pigs were sacrificed, a slit was made along the neck, and a portion of tracheal approximately 4 cm long was removed. […] The two ends of the tracheal were clamped with frog-heart shaped clamps, one end was fixed at the bottom of tissue bath filled with 20 ml of Kreb's solution, maintained at 37°C, while the other end was connected to a force transducer. Through a COULBOURN AT-High-Speed Videograph, long isometric contractions were recorded. […] Then the tracheal was repeatedly washed with Kreb's solution for 20 minutes and 10^-6 M of carbochol was added to cause contraction in the guinea pig's tracheal. When the contraction reached the maximum, every division of tracheal was used to complete two concentration response curve of L-isoproternol, one of them without administration of test compound and used as control; while the other curve was administered with compound 1 for 30 minutes before concentration response curve was completed. This is the test group. • (b) Calculation of pA2: similar to the calculation method for isolated right atrium experiment.

[9] = target: T2, β-adrenoreceptor (β1); assay: β-adrenoceptor blocking action on electrically driven isolated left atrium (L-isoproterenol-induced contractility); parameters: species or system Wistar rat
Protocol: The inspontaneously-beating left atrial tissue was obtained from rat's isolated right atrial tissue experiments. […] The contraction rate was 1Hz and the resting tension 0.5 gm. After 60 minutes of equilibration, the following experiments were performed: • (a) Completion of cumulative concentration-response curve: similar to experimental method on isolated right atrium; • (b)Calculation of pA2 value: similar to calculation method on isolated right atrium.

[10] = tested on: BayK8644 pretreated thoracic aorta; assay: Isolated thoracic aorta pretreated with BayK8644, then contracted with concentrated potassium solution; parameters: species or system Wistar rat; conditions: 0.1 µ M of BayK8644 for 10 minutes; 10^-8 to 10^-5 M compound
Protocol: The effect of compound 1 on the thoracic aorta contraction caused by 75mM KCl. The Wistar rat's isolated thoracic aorta was contraction induced by 75mM of concentrated Potassium solution. […] Furthermore, the contraction effects of 10^-8M of compound 1- 9 were indicated on Table 1. (b) The effect of compound 1 on BayK8644 pretreated thoracic aorta: 0.1 µ M of BayK8644 was first added into the tissue trough. 10 minutes later, 75mM of concentrated Potassium solution was added to induce thoracic aorta contraction. When vasoconstriction had reached stability, different concentrations of (10^-8, 10^-7, 10^-6, and 10^-5M) compound 1 were separately added.

[11] = tested on: Wistar rat's isolated thoracic aorta; assay: Isolated thoracic aorta contraction caused by 75mM KCl; conditions: 10^-8M; thoracic aorta contraction caused by 75mM KCl
Protocol: After sacrificing Wistar rat of weight between 300 - 500 gm, the thoracic aorta was immediately removed and placed in cold Kreb's solution. The fatty connecting tissue surrounding the vessel wall was removed and the thoracic aorta was cut into rings of length 5 mm. The two ends of each ring was pieced and fixed with "Z" shaped platinum wires. […] When the results had been recorded for at least 35 minutes, the aorta was repeatedly rinsed with normal Kreb's solution. […] 30 minutes later, 75mM KCl was added again to induce vasoconstriction.

T2 sequence (P18090 whole entry): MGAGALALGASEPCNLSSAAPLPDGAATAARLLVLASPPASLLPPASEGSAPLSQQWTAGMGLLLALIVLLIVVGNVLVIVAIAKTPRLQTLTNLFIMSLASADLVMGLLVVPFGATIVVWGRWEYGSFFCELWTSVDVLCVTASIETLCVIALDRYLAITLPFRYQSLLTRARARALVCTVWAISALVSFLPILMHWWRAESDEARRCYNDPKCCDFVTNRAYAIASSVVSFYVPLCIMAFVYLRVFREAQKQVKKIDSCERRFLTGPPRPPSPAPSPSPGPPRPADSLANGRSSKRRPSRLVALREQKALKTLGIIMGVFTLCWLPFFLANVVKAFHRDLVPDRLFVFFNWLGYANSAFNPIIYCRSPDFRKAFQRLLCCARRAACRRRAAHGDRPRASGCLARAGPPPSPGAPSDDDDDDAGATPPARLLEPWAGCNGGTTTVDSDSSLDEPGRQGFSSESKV
T4 sequence (Q8K4Z4 whole entry): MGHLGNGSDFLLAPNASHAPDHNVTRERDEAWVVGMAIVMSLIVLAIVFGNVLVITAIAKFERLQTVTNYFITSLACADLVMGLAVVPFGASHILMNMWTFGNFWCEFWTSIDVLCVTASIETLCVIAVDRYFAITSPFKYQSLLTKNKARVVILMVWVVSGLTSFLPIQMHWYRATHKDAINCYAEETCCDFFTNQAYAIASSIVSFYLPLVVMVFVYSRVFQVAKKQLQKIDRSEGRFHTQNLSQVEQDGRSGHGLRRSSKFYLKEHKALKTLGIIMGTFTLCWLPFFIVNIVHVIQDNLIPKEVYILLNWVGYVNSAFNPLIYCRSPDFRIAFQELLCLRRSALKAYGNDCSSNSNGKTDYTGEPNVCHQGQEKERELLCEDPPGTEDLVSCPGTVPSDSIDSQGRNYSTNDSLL
T1 sequence (P18090 whole entry): as the sequence (P18090 whole entry) above
T3 sequence (P10608 whole entry): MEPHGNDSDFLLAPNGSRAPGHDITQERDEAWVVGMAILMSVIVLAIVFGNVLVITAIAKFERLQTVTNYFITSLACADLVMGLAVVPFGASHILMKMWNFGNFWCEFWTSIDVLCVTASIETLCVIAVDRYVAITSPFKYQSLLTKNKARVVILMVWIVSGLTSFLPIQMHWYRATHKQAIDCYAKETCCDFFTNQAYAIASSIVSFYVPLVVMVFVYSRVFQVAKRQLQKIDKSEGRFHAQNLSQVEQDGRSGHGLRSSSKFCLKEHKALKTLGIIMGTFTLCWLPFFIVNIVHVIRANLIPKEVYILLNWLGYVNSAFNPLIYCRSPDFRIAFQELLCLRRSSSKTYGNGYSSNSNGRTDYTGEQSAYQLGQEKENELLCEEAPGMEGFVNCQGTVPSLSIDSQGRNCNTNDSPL

COC(=O)C1=C(C)NC(C)=C(C(=O)OC)C1c1ccc(OCC(O)CNC(C)(C)C)c(OC)c1 (stereo not shown) [compound 1]
effect on blood pressure and heart rate ([1]; intravenous injection of 0.5 mg/kg): a decrease in heart rate was shown | effect on blood pressure and heart rate ([1]; intravenous injection, 0.1, 0.25, 0.5, 1.0, 2.0 mg/kg, normotensive rats): continuous dose-dependent blood pressure lowering effect without increasing heart rate | duration of blood pressure lowering effect ([1]; intravenous injection, normotensive rats): approximately 1 hour | Lowering of Blood Pressure ([1]; lmg/kg, via femoral vein, rats): 70± 3 mm Hg | Reduction of Heart Rate ([1]; lmg/kg, via femoral vein, rats): 30± 2 beats/min | calcium ion influx effect of KCl ([Ca^2+]i) ([2]; 50mM KCl): significantly blocked | calcium ion influx effect of BayK8644 ([Ca^2+]i) ([2]; 10 µ M BayK8644): significantly blocked | Ki [3]: 245 nM | direct effect on right atrium beating rate and left atrium isometric contractions ([4]; cumulative administration, reserpine pretreated): could not increase the beating rate and isometric contractions | concentration with blocking effect on beating rate and isometric contractions ([4]; reserpine pretreated atria): ≥ 10^-5 M | tracheal relaxation effect after pretreatment with ICI 118, 551 [5]: concentration-dependently shifting parallel to the right | tracheal relaxation effect ([5]; cumulative administration 10^-10∼3x10^-6 M, reserpine pretreated): dose-dependant tracheal relaxation effect | selectivity ratio of β1 type adrenoceptor (effect on right atrium relative to tracheal) ([6]; from the average pA2 difference between right atrium and tracheal): 1.32 X | pA2 value ([6]; isolated right atrium, against L-isoproterenol): 7.21±0.32 | blocking of heart rate increment effect of L-isoproterenol ([6]; isolated right atrium, three concentrations of compound): could competitively block the heart rate increment effect of L-isoproterenol | Ki [7]: 631 nM | pA2 value ([8]; guinea pig's isolated tracheal, against L-isoproterenol): 7.09±0.54 | blocking of tracheal relaxation effect of L-isoproterenol ([8]; trachea contracted with 10^-6 M CARBACHOL): could competitively block the effect of L-isoproterenol | blocking of heart contractility increment effect of L-isoproterenol ([9]; isolated left atrium, three concentrations of compound): could competitively block the heart contractility increment effect of L-isoproterenol | pA2 value ([9]; left atrium contractility, against L-isoproterenol): 6.91±0.26 | effect of BayK8644 pre-treatment on the compound's vascular effect [10]: pre-treatment with BayK8644 would affect vasoconstriction function | Aorta Relaxation [11]: 30± 3%

— patent EP1108710A1, “GUAIACOXYPROPANOLAMINES WITH ALPHA/BETA-ADRENERGIC BLOCKING ACTIVITY” (Cheng, Ing-Jun, priority 1998, dated 2000)
